{
  "source": "patent US20080269223A1",
  "about": "“Mouth Dissolvable and Meltable, and Water Dispersable Delivery Formulation” (priority 2004, published 2008)",
  "key": {"[1]": {"settings": "cited from earlier work"}, "human plasma protein": {"system": "human plasma protein", "settings": "cited from earlier work"}, "[2]": {"assay": "Dissolution time of mannitol forms in water", "type": "physicochemical", "settings": "ratio 1:30 w/w with respect to water, 20° C.", "experimental": "The filler is mannitol, preferably a form of spray dried mannitol. […] Accordingly, α form of spray dried mannitol is most preferred in accordance to the present invention. The α-form of mannitol has mean particle size diameter of about 150 micron and Haussner number of about 1.16, having dissolution time in water with a ratio of 1:30 with respect to water in w/w, not more than 5 seconds at 20° C. […] When the dissolution time of the α-form of spray dried mannitol is compared with the standard and granulated mannitol, it gave following gradation:—"}},
  "note": "Read-outs that look alike come from different tables or passages of the source.",
  "data": [
    {"smiles": "Nc1nnc(-c2cccc(Cl)c2Cl)c(N)n1", "note": "[Lamotrigine, 3,5-diamino-b-[2,3-dichlorophenyl]-1,2,4-triazine]", "values": [
      {"measurement": "average half life", "setting": "[1]; Lamotrigine alone", "result": "approximately 24 hours"},
      {"measurement": "effect of food on bioavailability", "setting": "[1]; in vivo", "result": "not affected by food"},
      {"measurement": "half life", "setting": "[1]; used concurrently with phenytoin", "result": "approximately 7.2 hours"},
      {"measurement": "half life", "setting": "[1]; with Valproic Acid", "result": "approximately 59 hours"},
      {"measurement": "displacement of other anti-epileptic drugs from protein binding sites", "setting": "human plasma protein; carbamazepine, phenytoin, phenobarbitol", "result": "does not displace"},
      {"measurement": "bound to human plasma protein", "setting": "human plasma protein", "result": "approximately 55%"}
    ]},
    {"smiles": "OCC(O)C(O)C(O)C(O)CO", "note": "(stereo not drawn) [Spray dried α-mannitol, 1,2,3,4,5,6-hexanehexol]", "values": [
      {"measurement": "dissolution time in water", "setting": "[2]", "result": 5, "unit": "s"},
      {"measurement": "dissolution time in water", "setting": "[2]; listed as α-form of mannitol", "result": "not more than 5 seconds"}
    ]},
    {"smiles": "OC[C@@H](O)[C@@H](O)[C@H](O)[C@H](O)CO", "note": "[granulated mannitol]", "values": [
      {"measurement": "dissolution time in water", "setting": "[2]", "result": 100, "unit": "s"}
    ]},
    {"smiles": "OC[C@@H](O)[C@@H](O)[C@H](O)[C@H](O)CO", "note": "[standard mannitol]", "values": [
      {"measurement": "dissolution time in water", "setting": "[2]", "result": 35, "unit": "s"}
    ]}
  ]
}
